In patent US6641797B2, “Perfluoroalkyl-containing complexes with sugar radicals, process for their production and their use” (Schering Aktiengesellschaft, priority 2000, dated 2003):

Experiments:
Format in all cases: in vivo
[1] = system: rats with acute induced myocardial infarction; assay: Infarction visualization (MRT) after intravenous administration in rats with acute induced myocardial infarction; details: 100 μmol of Gd/kg i.v.; 24 hours; T1-weighted spin-echo, 1.5 T; confirmed by NBT staining
Protocol: Infarction Visualization (MRT) After Intravenous Administration of the Contrast Medium According to the Invention of Example 1 in Rats
MR images were prepared of the heart (in vivo and post mortem) 24 hours after intravenous administration of 100 μmol of Gd/kg of body weight of the title compound of Example 1 in rats with acute induced myocardial infarction. […] The successful indication of an acute myocardial infarction was confirmed using NBT staining.

[2] = Organ distribution (including tumor and lymph node concentration) after intravenous administration in prostate-cancer-carrying rats; details: 225 μmol total Gd/kg i.v.
Text: Organ Distribution (Including Tumor and Lymph Node Concentration) After Intravenous Administration of the Contrast Medium According to the Invention of Example 1 in Prostate-cancer-carrying Rats
After intravenous administration of 225 μmol of total gadolinium/kg of body weight of the title compound of Example 1 in rats (Cop-inbreeding Dunning R3327 MAT-Lu prostate cancer i.m.-implanted 12 days earlier), the metal content in various organs, in tumors and in lymph nodes (pooled as mesenteral and peripheral lymph nodes) was determined 10 minutes, 1 and 24 hours after administration (MW±SD, n=3).

[3] = system: VX2-tumor-carrying rabbits; assay: Lymph node visualization (MRT) after intravenous administration in VX2-tumor-carrying rabbits; details: 200 μmol of Gd/kg i.v.
Text: Lymph Node Visualization (MRT) After Intravenous Administration of the Contrast Medium According to the Invention of Example 1 in VX2-tumor-carrying Rabbits

[4] = Intestine (emptied), 10 min p.i.
[5] = Muscle (only tissue sample from right lower leg muscle), 10 min p.i.
[6] = Muscle (only tissue sample from right lower leg muscle), 1 h p.i.
[7] = Muscle (only tissue sample from right lower leg muscle), 24 h p.i.
[8] = Remainder of body (also contains the remainder of the blood), 24 h p.i.
[9] = mes. LK (pooled mesenteral lymph nodes), 10 min p.i.
[10] = mes. LK (pooled mesenteral lymph nodes), 1 h p.i.
[11] = mes. LK (pooled mesenteral lymph nodes), 24 h p.i.
[12] = periph. LK (pooled peripheral lymph nodes), 10 min p.i.
[13] = periph. LK (pooled peripheral lymph nodes), 1 h p.i.
[14] = periph. LK (pooled peripheral lymph nodes), 24 h p.i.

CC(C(=O)NCC(=O)NCCCC[C@H](NC(=O)CO[C@H]1O[C@H](CO)[C@@H](O)[C@H](O)[C@@H]1O)C(=O)N1CCN(S(=O)(=O)C(F)(F)C(F)(F)C(F)(F)C(F)(F)C(F)(F)C(F)(F)C(F)(F)C(F)(F)F)CC1)N1CCN(CC(=O)[O-])CCN(CC(=O)[O-])CCN(CC(=O)[O-])CC1.[Gd+3] (some centres unmarked) [Example 1]
MR signal in the infarction area [1]: strong signal rise
% Dose per Total Tissue, Balance ([2]; Balance, 24 h p.i.): 94.1 ± 6.41 % Dose
% Dose per Total Tissue ([2]; Blood (58 ml of blood/kg of body weight), 10 min p.i.): 42.95 ± 2.59 % Dose
% Dose per Total Tissue ([2]; Blood (58 ml of blood/kg of body weight), 1 h p.i.): 21.47 ± 1.78 % Dose
% Dose per Total Tissue ([2]; Blood (58 ml of blood/kg of body weight), 24 h p.i.): 1.78 ± 0.03 % Dose
Gd-Concentration ([2]; Blood, 10 min p.i.): 1665 ± 110 µmol/L
Gd-Concentration ([2]; Blood, 1 h p.i.): 825 ± 67 µmol/L
Gd-Concentration ([2]; Blood, 24 h p.i.): 214 ± 9 µmol/L
% Dose per Total Tissue ([2]; Brain, 10 min p.i.): 0.15 ± 0.03 % Dose
Gd-Concentration ([2]; Brain, 10 min p.i.): 47 ± 13 µmol/L
% Dose per Total Tissue ([2]; Brain, 1 h p.i.): 0.08 ± 0.02 % Dose
Gd-Concentration ([2]; Brain, 1 h p.i.): 26 ± 5 µmol/L
% Dose per Total Tissue ([2]; Brain, 24 h p.i.): 0.04 ± 0.00 % Dose
Gd-Concentration ([2]; Brain, 24 h p.i.): 14 ± 2 µmol/L
% Dose per Total Tissue ([2]; Feces 0-24 h): 21.85 ± 1.46 % Dose
Gd-Concentration ([2]; Feces 0-24 h): 3128 ± 204 µmol/L
% Dose per Total Tissue ([2]; Femur, 10 min p.i.): 0.65 ± 0.01 % Dose
Gd-Concentration ([2]; Femur, 10 min p.i.): 184 ± 4 µmol/L
% Dose per Total Tissue ([2]; Femur, 1 h p.i.): 0.46 ± 0.03 % Dose
Gd-Concentration ([2]; Femur, 1 h p.i.): 127 ± 9 µmol/L
% Dose per Total Tissue ([2]; Femur, 24 h p.i.): 0.31 ± 0.03 % Dose
Gd-Concentration ([2]; Femur, 24 h p.i.): 87 ± 6 µmol/L
% Dose per Total Tissue ([2]; Heart, 10 min p.i.): 0.46 ± 0.01 % Dose
Gd-Concentration ([2]; Heart, 10 min p.i.): 438 ± 29 µmol/L
% Dose per Total Tissue ([2]; Heart, 1 h p.i.): 0.31 ± 0.03 % Dose
Gd-Concentration ([2]; Heart, 1 h p.i.): 289 ± 24 µmol/L
% Dose per Total Tissue ([2]; Heart, 24 h p.i.): 0.14 ± 0.02 % Dose
Gd-Concentration ([2]; Heart, 24 h p.i.): 131 ± 9 µmol/L
% Dose per Total Tissue [2, 4]: 2.91 ± 0.18 % Dose
Gd-Concentration [2, 4]: 342 ± 16 µmol/L
% Dose per Total Tissue ([2]; Intestine (emptied), 1 h p.i.): 3.41 ± 1.02 % Dose
Gd-Concentration ([2]; Intestine (emptied), 1 h p.i.): 409 ± 67 µmol/L
% Dose per Total Tissue ([2]; Intestine (emptied), 24 h p.i.): 2.14 ± 0.14 % Dose
Gd-Concentration ([2]; Intestine (emptied), 24 h p.i.): 243 ± 22 µmol/L
% Dose per Total Tissue ([2]; Kidney, 10 min p.i.): 5.02 ± 1.29 % Dose
Gd-Concentration ([2]; Kidney, 10 min p.i.): 2081 ± 537 µmol/L
% Dose per Total Tissue ([2]; Kidney, 1 h p.i.): 2.15 ± 0.23 % Dose
Gd-Concentration ([2]; Kidney, 1 h p.i.): 883 ± 94 µmol/L
% Dose per Total Tissue ([2]; Kidney, 24 h p.i.): 2.97 ± 0.21 % Dose
Gd-Concentration ([2]; Kidney, 24 h p.i.): 1178 ± 139 µmol/L
% Dose per Total Tissue ([2]; Liver, 10 min p.i.): 5.46 ± 0.16 % Dose
Gd-Concentration ([2]; Liver, 10 min p.i.): 387 ± 26 µmol/L
% Dose per Total Tissue ([2]; Liver, 1 h p.i.): 5.81 ± 0.16 % Dose
Gd-Concentration ([2]; Liver, 1 h p.i.): 364 ± 8 µmol/L
% Dose per Total Tissue ([2]; Liver, 24 h p.i.): 11.65 ± 0.97 % Dose
Gd-Concentration ([2]; Liver, 24 h p.i.): 746 ± 34 µmol/L
% Dose per Total Tissue ([2]; Lung, 10 min p.i.): 1.69 ± 0.06 % Dose
Gd-Concentration ([2]; Lung, 10 min p.i.): 837 ± 32 µmol/L
% Dose per Total Tissue ([2]; Lung, 1 h p.i.): 1.38 ± 0.08 % Dose
Gd-Concentration ([2]; Lung, 1 h p.i.): 658 ± 29 µmol/L
% Dose per Total Tissue ([2]; Lung, 24 h p.i.): 0.73 ± 0.04 % Dose
Gd-Concentration ([2]; Lung, 24 h p.i.): 370 ± 34 µmol/L
% Dose per Total Tissue [2, 5]: 10.11 ± 0.03 % Dose
Gd-Concentration [2, 5]: 99 ± 5 µmol/L
% Dose per Total Tissue [2, 6]: 0.09 ± 0.03 % Dose
Gd-Concentration [2, 6]: 78 ± 1 µmol/L
% Dose per Total Tissue [2, 7]: 0.04 ± 0.00 % Dose
Gd-Concentration [2, 7]: 36 ± 1 µmol/L
% Dose per Total Tissue ([2]; Pancreas, 10 min p.i.): 0.26 ± 0.05 % Dose
Gd-Concentration ([2]; Pancreas, 10 min p.i.): 229 ± 27 µmol/L
% Dose per Total Tissue ([2]; Pancreas, 1 h p.i.): 0.21 ± 0.05 % Dose
Gd-Concentration ([2]; Pancreas, 1 h p.i.): 199 ± 30 µmol/L
% Dose per Total Tissue ([2]; Pancreas, 24 h p.i.): 0.17 ± 0.02 % Dose
Gd-Concentration ([2]; Pancreas, 24 h p.i.): 130 ± 13 µmol/L
% Dose per Total Tissue [2, 8]: 30.83 ± 4.05 % Dose
Gd-Concentration [2, 8]: 225 ± 31 µmol/L
% Dose per Total Tissue ([2]; Spleen, 10 min p.i.): 0.39 ± 0.03 % Dose
Gd-Concentration ([2]; Spleen, 10 min p.i.): 548 ± 22 µmol/L
% Dose per Total Tissue ([2]; Spleen, 1 h p.i.): 0.39 ± 0.02 % Dose
Gd-Concentration ([2]; Spleen, 1 h p.i.): 487 ± 25 µmol/L
% Dose per Total Tissue ([2]; Spleen, 24 h p.i.): 0.57 ± 0.03 % Dose
Gd-Concentration ([2]; Spleen, 24 h p.i.): 645 ± 27 µmol/L
% Dose per Total Tissue ([2]; Stomach (emptied), 10 min p.i.): 0.57 ± 0.04 % Dose
Gd-Concentration ([2]; Stomach (emptied), 10 min p.i.): 231 ± 10 µmol/L
% Dose per Total Tissue ([2]; Stomach (emptied), 1 h p.i.): 0.54 ± 0.12 % Dose
Gd-Concentration ([2]; Stomach (emptied), 1 h p.i.): 219 ± 46 µmol/L
% Dose per Total Tissue ([2]; Stomach (emptied), 24 h p.i.): 0.37 ± 0.06 % Dose
Gd-Concentration ([2]; Stomach (emptied), 24 h p.i.): 138 ± 9 µmol/L
% Dose per Total Tissue, Sum of Organs ([2]; Sum of Organs (less the remainder of the body), 10 min p.i.): 60.47 ± 3.68 % Dose
% Dose per Total Tissue, Sum of Organs ([2]; Sum of Organs (less the remainder of the body), 1 h p.i.): 36.33 ± 2.51 % Dose
% Dose per Total Tissue, Sum of Organs ([2]; Sum of Organs, 24 h p.i.): 52.01 ± 5.22 % Dose
% Dose per Total Tissue ([2]; Tumor, 10 min p.i.): 0.28 ± 0.10 % Dose
Gd-Concentration ([2]; Tumor, 10 min p.i.): 185 ± 36 µmol/L
% Dose per Total Tissue ([2]; Tumor, 1 h p.i.): 0.21 ± 0.02 % Dose
Gd-Concentration ([2]; Tumor, 1 h p.i.): 184 ± 13 µmol/L
% Dose per Total Tissue ([2]; Tumor, 24 h p.i.): 0.31 ± 0.01 % Dose
Gd-Concentration ([2]; Tumor, 24 h p.i.): 199 ± 19 µmol/L
% Dose per Total Tissue ([2]; Urine 0-24 h): 20.20 ± 4.41 % Dose
Gd-Concentration ([2]; Urine 0-24 h): 94 ± 20 µmol/L
% Dose per Total Tissue [2, 9]: 0.11 ± 0.04 % Dose
Gd-Concentration [2, 9]: 359 ± 72 µmol/L
% Dose per Total Tissue [2, 10]: 0.24 ± 0.02 % Dose
Gd-Concentration [2, 10]: 697 ± 42 µmol/L
% Dose per Total Tissue [2, 11]: 0.32 ± 0.04 % Dose
Gd-Concentration [2, 11]: 854 ± 135 µmol/L
% Dose per Total Tissue [2, 12]: 0.10 ± 0.01 % Dose
Gd-Concentration [2, 12]: 229 ± 15 µmol/L
% Dose per Total Tissue [2, 13]: 0.20 ± 0.03 % Dose
Gd-Concentration [2, 13]: 436 ± 44 µmol/L
% Dose per Total Tissue [2, 14]: 0.18 ± 0.01 % Dose
Gd-Concentration [2, 14]: 373 ± 24 µmol/L
MR signal in lymph node metastasis ([3]; 24 hours after administration): considerable signal rise
MR signal rise in healthy lymph node tissue ([3]; 24 hours after administration): reduced
MR enhancement of the primary tumor ([3]; 24 hours p.i.): enhancement also propagates out from the center of the tumor
MR signal in lymph node metastasis ([3]; early after administration, confirmed histologically): without a signal rise
MR signal in healthy lymph node tissue ([3]; iliac lymph nodes, T1-weighted gradient-echo, 1.5 T, early after administration): strong signal rise
MR enhancement of the primary tumor ([3]; immediately after administration, especially the periphery): considerable enhancement
